One assay concerns the target T1, SYK (Homo sapiens, UniProt P43405).
T1 construct: 2.5 nM SYK, 400 nM Biotin-Aha-Aha-KEDPDYEWPSAKK
In words: SYK flash plate assay (enzyme assay). In kind it is biochemical. Summed up:
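Radiometric Flashplate format: biotinylated peptide substrate (400 nM) and 33P-labelled ATP (10 μM) react with 2.5 nM enzyme for 1 hour at 30 °C in Hepes buffer, pH 7.5. After EDTA quench and washing, counts are taken; staurosporine defines non-specific signal, and IC50 values are derived.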

The next assay deals with GCN2 (Homo sapiens, UniProt Q9P2K8). In words: GCN2 enzyme assay. Format: biochemical.
Sequence of GCN2 (Q9P2K8 whole entry): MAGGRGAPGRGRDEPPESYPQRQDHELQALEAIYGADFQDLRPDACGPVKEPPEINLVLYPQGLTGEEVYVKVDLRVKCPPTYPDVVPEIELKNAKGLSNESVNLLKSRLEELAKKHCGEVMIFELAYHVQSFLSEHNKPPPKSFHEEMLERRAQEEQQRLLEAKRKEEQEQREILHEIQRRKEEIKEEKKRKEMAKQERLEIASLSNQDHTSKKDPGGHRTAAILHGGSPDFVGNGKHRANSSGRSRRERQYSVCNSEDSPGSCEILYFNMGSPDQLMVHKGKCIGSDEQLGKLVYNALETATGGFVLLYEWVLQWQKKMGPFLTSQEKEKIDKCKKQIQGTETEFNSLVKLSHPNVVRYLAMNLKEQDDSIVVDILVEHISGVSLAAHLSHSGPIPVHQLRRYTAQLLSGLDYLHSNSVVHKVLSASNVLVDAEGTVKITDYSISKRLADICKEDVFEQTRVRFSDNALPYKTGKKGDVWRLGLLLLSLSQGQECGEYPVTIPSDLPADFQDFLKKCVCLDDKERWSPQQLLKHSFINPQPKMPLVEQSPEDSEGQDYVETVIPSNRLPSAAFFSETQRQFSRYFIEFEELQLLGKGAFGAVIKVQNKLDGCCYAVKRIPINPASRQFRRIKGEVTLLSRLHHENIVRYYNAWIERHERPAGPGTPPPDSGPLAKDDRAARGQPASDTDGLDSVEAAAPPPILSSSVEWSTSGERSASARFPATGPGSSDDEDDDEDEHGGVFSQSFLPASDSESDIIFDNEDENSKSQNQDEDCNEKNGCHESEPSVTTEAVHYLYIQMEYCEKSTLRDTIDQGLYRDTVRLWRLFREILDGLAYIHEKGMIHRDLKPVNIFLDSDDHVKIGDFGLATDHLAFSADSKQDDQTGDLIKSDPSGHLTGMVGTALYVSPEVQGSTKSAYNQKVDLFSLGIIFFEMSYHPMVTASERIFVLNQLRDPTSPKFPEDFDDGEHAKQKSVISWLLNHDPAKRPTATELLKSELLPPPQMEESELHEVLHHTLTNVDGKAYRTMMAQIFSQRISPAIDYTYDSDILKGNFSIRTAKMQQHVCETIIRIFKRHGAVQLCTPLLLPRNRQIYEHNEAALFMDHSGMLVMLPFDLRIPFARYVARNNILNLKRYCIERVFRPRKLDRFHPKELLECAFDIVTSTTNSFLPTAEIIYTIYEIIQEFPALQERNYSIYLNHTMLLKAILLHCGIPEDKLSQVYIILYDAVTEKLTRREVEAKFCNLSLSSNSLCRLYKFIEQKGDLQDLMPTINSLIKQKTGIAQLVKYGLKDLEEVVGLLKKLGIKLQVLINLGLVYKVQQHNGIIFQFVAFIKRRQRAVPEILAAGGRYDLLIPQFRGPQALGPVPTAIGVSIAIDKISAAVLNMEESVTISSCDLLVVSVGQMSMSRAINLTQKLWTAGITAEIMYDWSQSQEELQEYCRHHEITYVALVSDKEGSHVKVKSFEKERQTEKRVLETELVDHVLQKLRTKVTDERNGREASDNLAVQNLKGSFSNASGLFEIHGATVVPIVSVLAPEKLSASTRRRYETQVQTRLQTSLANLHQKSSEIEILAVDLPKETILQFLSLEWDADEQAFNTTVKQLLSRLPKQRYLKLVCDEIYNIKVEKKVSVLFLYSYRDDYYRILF

pIC50: −log10 of the molar value. Structures can show the parent of a compound that is named as a salt.

For orientation: pIC50 means −log10 of the IC50, conventionally taken in molar units. The low end stands for a large IC50, the high end for a small IC50. `Cn1cc(-c2nccn3nc(Nc4cccc(N5CCOCC5)c4)nc23)cn1` [C18, [8-(1-Methyl-1H-pyrazol-4-yl)-[1,2,4]triazolo[1,5-a]pyrazin-2-yl]-(3-morpholin-4-yl-phenyl)-amine]: the pIC50 at SYK was 5.52 to 6.52; against GCN2 it was 4.30 to 5.52.

On to `CC1(C)C(=O)Nc2cc(Nc3nc4c(N5CC[C@@H](O)C5)nccn4n3)ccc21` [C73, 6-[8-((R)-3-hydroxy-pyrrolidin-1-yl)-[1,2,4]triazolo[1,5-a]pyrazin-2-ylamino]-3,3-dimethyl-1,3-dihydro-indol-2-one], for which the results for the pIC50 on SYK and against GCN2 were 6.52 to 7.00 and 4.30 to 5.52, respectively.

Regarding `CC(C)C1(O)C(=O)Nc2cc(Nc3nc4c(-c5cnn(C)c5)nccn4n3)ccc21` (stereo not drawn) [C82, 3-hydroxy-3-isopropyl-6-[8-(1-methyl-1H-pyrazol-4-yl)-[1,2,4]triazolo[1,5-a]pyrazin-2-ylamino]-1,3-dihydro-indol-2-one], the negative logarithm of the IC50 (pIC50) against SYK was 6.52 to 7.00; on GCN2, 5.52 to 6.52.

In the case of `Cn1nnc2ccc(Nc3nc4c(-c5ccccc5-c5ccccc5)nccn4n3)cc21` [C29], the values for the negative logarithm of the IC50 (pIC50) against SYK and at GCN2 were 6.52 to 7.00 and 4.30 to 5.52, respectively.

On to `CN(c1nccn2nc(Nc3ccc4c(c3)NC(=O)C4(C)C)nc12)C1CCCCC1` [C78, 6-[8-(cyclohexyl-methyl-amino)-[1,2,4]triazolo[1,5-a]pyrazin-2-ylamino]-3,3-dimethyl-1,3-dihydro-indol-2-one], for which the negative logarithm of the IC50 (pIC50) against SYK was 5.52 to 6.52; against GCN2, 4.30 to 5.52.

Regarding `Cn1cc(-c2nccn3nc(Nc4ccc5c(C(C)(O)C(F)(F)F)c[nH]c5c4)nc23)cn1` (stereo not drawn) [C113, 1,1,1-trifluoro-2-{6-[8-(1-methyl-1H-pyrazol-4-yl)-[1,2,4]triazolo[1,5-a]pyrazin-2-ylamino]-1H-indol-3-yl}-propan-2-ol], the pIC50 on SYK was > 7.00; at GCN2 it was 5.52 to 6.52.

In the case of `CC1(C)C(=O)Nc2cc(Nc3nc4c(-c5cn[nH]c5)nccn4n3)ccc21` [C67, 3,3-dimethyl-6-[8-(1H-pyrazol-4-yl)-[1,2,4]triazolo[1,5-a]pyrazin-2-ylamino]-1,3-dihydro-indol-2-one], the values for the pIC50 on SYK and against GCN2 were > 7.00 and 5.52 to 6.52, respectively.

`Cc1nn(C)cc1-c1nccn2nc(Nc3ccc4c(c3)NC(=O)C4(C)C)nc12` [C69, 6-[8-(1,3-dimethyl-1H-pyrazol-4-yl)-[1,2,4]triazolo[1,5-a]pyrazin-2-ylamino]-3,3-dimethyl-1,3-dihydro-indol-2-one]: the pIC50 is 6.52 to 7.00 against SYK and 5.52 to 6.52 against GCN2.

For `CC1(C)C(=O)Nc2cc(Nc3nc4c(N5CCC[C@H](N)C5)nccn4n3)ccc21` [C99, 6-[8-((S)-3-amino-piperidin-1-yl)-[1,2,4]triazolo[1,5-a]pyrazin-2-ylamino]-3,3-dimethyl-1,3-dihydro-indol-2-one], the pIC50 is > 7.00 at SYK and 4.30 to 5.52 against GCN2.

For `CC1(C)OC(=O)Nc2cc(Nc3nc4c(-c5cccc6[nH]ncc56)nccn4n3)ccc21` [C120, 7-[8-(1H-indazol-4-yl)-[1,2,4]triazolo[1,5-a]pyrazin-2-ylamino]-4,4-dimethyl-1,4-dihydro-benzo[d][1,3]oxazin-2-one], the negative logarithm of the IC50 (pIC50) against SYK is > 7.00; at GCN2, 5.52 to 6.52.

With `CC1(C)C(=O)Nc2cc(Nc3nc4c(-c5ccc(S(C)(=O)=O)cc5)nccn4n3)ccc21` [C70, 6-[8-(4-Methanesulfonyl-phenyl)-[1,2,4]triazolo[1,5-a]pyrazin-2-ylamino]-3,3-dimethyl-1,3-dihydro-indol-2-one], the pIC50 on SYK is 6.52 to 7.00; on GCN2, 5.52 to 6.52.

`COc1cc(Nc2nc3c(N4CCCC(C(=O)NCCO)C4)nccn3n2)cc(OC)c1` (stereo not drawn) [C45, 1-[2-(3,5-dimethoxy-phenylamino)-[1,2,4]triazolo[1,5-a]pyrazin-8-yl]-piperidine-3-carboxylic acid (2-hydroxy-ethyl)-amide]: the negative-log IC50 (pIC50) against SYK and at GCN2 was 4.30 to 5.52 in each case.

For `CC1(C)C(=O)Nc2cc(Nc3nc4c(N5CCC[C@H]5CO)nccn4n3)ccc21` [C84, 6-[8-((S)-2-hydroxymethyl-pyrrolidin-1-yl)-[1,2,4]triazolo[1,5-a]pyrazin-2-ylamino]-3,3-dimethyl-1,3-dihydro-indol-2-one], the figures for the negative logarithm of the IC50 (pIC50) on SYK and against GCN2 were 6.52 to 7.00 and 4.30 to 5.52, respectively.

As for `NC(=O)C1(c2ccc(Nc3nc4c(-c5cn[nH]c5)nccn4n3)cc2)CC1` [C66, 1-{4-[8-(1H-pyrazol-4-yl)-[1,2,4]triazolo[1,5-a]pyrazin-2-ylamino]-phenyl}-cyclopropanecarboxylic acid amide], the pIC50 at SYK was 6.52 to 7.00; on GCN2, 4.30 to 5.52.

`Cc1nc2cc(Nc3nc4c(-c5ccc(CN6CCOCC6)c(F)c5)nccn4n3)ccc2[nH]1` [C59, [8-(3-fluoro-4-morpholin-4-ylmethyl-phenyl)-[1,2,4]triazolo[1,5-a]pyrazin-2-yl]-(2-methyl-1H-benzoimidazol-5-yl)-amine]: the values for the pIC50 against SYK and on GCN2 were 4.30 to 5.52 and 5.52 to 6.52, respectively.

As for `Cn1cc(-c2nccn3nc(Nc4ccc5c(C(=O)C(F)(F)F)c[nH]c5c4)nc23)cn1` [C112, 2,2,2-trifluoro-1-{6-[8-(1-methyl-1H-pyrazol-4-yl)-[1,2,4]triazolo[1,5-a]pyrazin-2-ylamino]-1H-indol-3-yl}-ethanone], the pIC50 on SYK is 5.52 to 6.52; against GCN2, 4.30 to 5.52.

As to `Cn1cc(-c2nccn3nc(Nc4ccc5c(c4)CS(=O)(=O)N5)nc23)cn1` [C115, (2,2-dioxo-2,3-dihydro-1H-2I6-benzo[c]isothiazol-5-yl)-[8-(1-methyl-1H-pyrazol-4-yl)-[1,2,4]triazolo[1,5-a]pyrazin-2-yl]-amine], the pIC50 was 6.52 to 7.00 against SYK and 4.30 to 5.52 against GCN2.

With `COc1ccc(Nc2nc3c(-c4cnn(C)c4)nccn3n2)cc1` [C2, (4-Methoxy-phenyl)-[8-(1-methyl-1H-pyrazol-4-yl)-[1,2,4]triazolo[1,5-a]pyrazin-2-yl]-amine], the negative-log IC50 (pIC50) was 5.52 to 6.52 against SYK and 4.30 to 5.52 against GCN2.

Regarding `Cn1cc(-c2nccn3nc(Nc4ccc(C(C)(C)O)cc4)nc23)cn1` [C61, 2-{4-[8-(1-methyl-1H-pyrazol-4-yl)-[1,2,4]triazolo[1,5-a]pyrazin-2-ylamino]-phenyl}-propan-2-ol], the pIC50 on SYK is 6.52 to 7.00; against GCN2, 5.52 to 6.52.

With `Cn1cc(-c2nccn3nc(Nc4cnn(C5CCNCC5)c4)nc23)cn1` [C28, [8-(1-Methyl-1H-pyrazol-4-yl)-[1,2,4]triazolo[1,5-a]pyrazin-2-yl]-(1-piperidin-4-yl-1H-pyrazol-4-yl)-amine hydrochloride], the pIC50 against SYK is 4.30 to 5.52; at GCN2, 5.52 to 6.52.

As to `Cn1cc(-c2nccn3nc(Nc4ccc5cn[nH]c5c4)nc23)cn1` [C12, (1H-Indazol-6-yl)-[8-(1-methyl-1H-pyrazol-4-yl)-[1,2,4]triazolo[1,5-a]pyrazin-2-yl]-amine], the pIC50 was 6.52 to 7.00 at SYK and 4.30 to 5.52 on GCN2.
